Laboratory results: ChEMBL document CHEMBL4622836, “Identification of an ethyl 5,6-dihydropyrazolo[1,5-c]quinazoline-1-carboxylate as a catalytic inhibitor of DNA gyrase” (Bioorg Med Chem, 2020)
Active and inactive are the calls of the source. The calls are words filed in the database; no cut-off is given here.

Tests used:
DNA gyrase = DNA gyrase (Escherichia coli, UniProt P0AES4+P0AES6); experiment: Inhibition of Escherichia coli DNA gyrase assessed as supercoiling activity by fluorescence assay relative to control; format: protein-complex assay
[1] = molecular target: T1, DNA gyrase (Escherichia coli) (UniProt P0AES6+P0AES4); experiment: Poison activity at Escherichia coli DNA gyrase assessed as stabilization of DNA cleavage complex by measuring linear plasmid DNA formation relative to control; format: protein-complex assay
[2] = molecular target: T1, DNA gyrase (Escherichia coli); experiment: Inhibition of Escherichia coli DNA gyrase super-coiling activity at 50 uM; format: protein-complex assay
DNA = experiment: Displacement of thiazole orange from DNA (unknown origin) by fluorescence assay; format: nucleic-acid assay
[3] = molecular target: T1, DNA gyrase (Escherichia coli); experiment: Inhibition of Escherichia coli DNA gyrase super-coiling activity at 25uM; format: protein-complex assay
Bos taurus = species: Bos taurus; experiment: Binding affinity to calf thymus DNA by fluorescence-based DNA binding assay

`CCOC(=O)c1cc2c3cc(F)c(N4CC[C@@H](CN)C4)cc3n(CC)c(=O)n2n1` was tested, and the IC50 (DNA gyrase) was over 50 µM.

With `CCOC(=O)c1cnn2c(=O)n(CC)c3cc(N4CC[C@@H](CN)C4)c(F)cc3c12` the IC50 (DNA gyrase) was 3.5 µM, the Activity [1] was “inactive” and the inhibition [2] was “Active”. The Activity (DNA) was “inactive”, the inhibition [3] was “Active” and the Activity (Bos taurus) was “inactive”.

In the case of `CCn1c(=O)n2nc(C(=O)O)cc2c2cc(F)c(N3CC[C@@H](CN)C3)cc21`, the IC50 (DNA gyrase) is reported as over 50 µM.

With `COc1c(N2CC[C@@H](CN)C2)c(F)cc2c(=O)n(CCNC(=N)N)c(=O)n(C3CC3)c12` the IC50 (DNA gyrase) was over 50 µM.

Work on `NCCn1c(=O)c2cc(F)c(N3CC[C@@H](CN)C3)cc2n(C2CC2)c1=O` yielded an IC50 (DNA gyrase) of over 50 µM.

With `Cc1c(N2CC[C@@H](CN)C2)c(F)cc2c(=O)n(CCN)c(=O)n(C3CC3)c12` the IC50 (DNA gyrase) was 17.6 µM, the Activity [1] was “Active” and the inhibition [2] was “Active”. The inhibition [3] was “Active”.

For `COc1c(N2CC[C@@H](CN)C2)c(F)cc2c(=O)n(CCN)c(=O)n(C3CC3)c12`, the IC50 (DNA gyrase) was over 50 µM.

For `COc1c(N2CC[C@@H](CN)C2)c(F)cc2c(=O)c(C(=O)O)cn(C3CC3)c12`, the IC50 (DNA gyrase) was 0.12 µM and the Activity [1] was “Active”.

Work on `N=C(N)NCCn1c(=O)c2cc(F)c(N3CC[C@@H](CN)C3)cc2n(C2CC2)c1=O` yielded an IC50 (DNA gyrase) of over 50 µM.

`Cc1c(N2CC[C@@H](CN)C2)c(F)cc2c(=O)n(CCNC(=N)N)c(=O)n(C3CC3)c12` was tested, and the IC50 (DNA gyrase) was 11.5 µM, the Activity [1] was “Active” and the inhibition [2] was “Active”. For the same molecule, the inhibition [3] was “Active”.

`Cc1c(N2CC[C@@H](CN)C2)c(F)cc2c(=O)n(N)c(=O)n(C3CC3)c12` was tested, and the IC50 (DNA gyrase) was 0.95 µM and the Activity [1] was “Active”.
